Laboratory results from patent US20090041897A1, “Transparent, concentrated liquid nutritional supplement composition” (priority 2007, published 2009).

Assays:
[1] = solubility, turbidity and stability of ingredients in water; type: physicochemical; conditions: minerals considered for the concentrate
Method: Each ingredient or nutrient is evaluated at suitable concentration (based on actual usage level) in 100 ml deionized water enclosed in glass bottle and checked for turbidity. Only non turbidity producing materials (estimated at 25 NTU or less) were selected. Visual evaluation also conducted to ensure clear liquids are obtained. Solutions with an estimated 30 NTG and above are eliminated as potential ingredients. Bottles were also checked for precipitated solids at 0, 2, 4, 6, 8, 10 and 24 hours at room temperature. If precipitate is observed, the ingredient/nutrient is rendered unusable for producing appealing liquid nutritional supplement. Furthermore, ingredients are evaluated in a final diluted liquid nutritional supplement and/or diluents to ensure that dilution will not change the physical appearance of concentrates. […] Insoluble materials are excluded from the formulation. Saturation point is also observed for each ingredient/nutrient to ensure that no precipitation will occur. […] Each ingredient or nutrient is evaluated at suitable concentration (based on actual usage level) in 100 ml deionized water enclosed in glass bottle and checked turbidity. […] Furthermore, ingredients are evaluated in a final diluted liquid nutritional supplement to ensure that dilution will not change the physical appearance of concentrates. […]

[2] = general statement in the description; cited from earlier work

| Molecule | solubility in water [2] | other results |
| --- | --- | --- |
| [Mg+2] [magnesium] | – | effect on clarity of concentrate and finished liquid nutritional supplement [1]: induce cloudiness and turbidity; solubility [1]: not soluble |
| Chondroitin sulfate | soluble in water | – |
| O=C1O[C@H]([C@@H](O)CO)C(O)=C1O [Vitamin C, Ascorbic Acid] | – | stability in water [2]: degrades in water in fast fashion |
| Hydrolyzed Collagen | readily water soluble | – |
| N[C@H]1C(O)O[C@H](CO)[C@@H](O)[C@@H]1O (some centres unmarked) [Glucosamine] | water-soluble | – |
| Gelatin | soluble only in hot water | – |
| CS(C)(=O)=O [MSM, Methyl-Sulfonyl-Methane] | readily water soluble | – |
